Entries after “also recorded” stand apart in the source; their conditions may differ.
T1: G-CSF receptor (Mus musculus, UniProt P40223)
T1 construct: they express endogenous G-CSF receptors; endogenous in cells; host or cells: NFS60 murine myeloid cell line with a G-CSF-responsive luciferase reporter
T1 sequence (P40223 26-837): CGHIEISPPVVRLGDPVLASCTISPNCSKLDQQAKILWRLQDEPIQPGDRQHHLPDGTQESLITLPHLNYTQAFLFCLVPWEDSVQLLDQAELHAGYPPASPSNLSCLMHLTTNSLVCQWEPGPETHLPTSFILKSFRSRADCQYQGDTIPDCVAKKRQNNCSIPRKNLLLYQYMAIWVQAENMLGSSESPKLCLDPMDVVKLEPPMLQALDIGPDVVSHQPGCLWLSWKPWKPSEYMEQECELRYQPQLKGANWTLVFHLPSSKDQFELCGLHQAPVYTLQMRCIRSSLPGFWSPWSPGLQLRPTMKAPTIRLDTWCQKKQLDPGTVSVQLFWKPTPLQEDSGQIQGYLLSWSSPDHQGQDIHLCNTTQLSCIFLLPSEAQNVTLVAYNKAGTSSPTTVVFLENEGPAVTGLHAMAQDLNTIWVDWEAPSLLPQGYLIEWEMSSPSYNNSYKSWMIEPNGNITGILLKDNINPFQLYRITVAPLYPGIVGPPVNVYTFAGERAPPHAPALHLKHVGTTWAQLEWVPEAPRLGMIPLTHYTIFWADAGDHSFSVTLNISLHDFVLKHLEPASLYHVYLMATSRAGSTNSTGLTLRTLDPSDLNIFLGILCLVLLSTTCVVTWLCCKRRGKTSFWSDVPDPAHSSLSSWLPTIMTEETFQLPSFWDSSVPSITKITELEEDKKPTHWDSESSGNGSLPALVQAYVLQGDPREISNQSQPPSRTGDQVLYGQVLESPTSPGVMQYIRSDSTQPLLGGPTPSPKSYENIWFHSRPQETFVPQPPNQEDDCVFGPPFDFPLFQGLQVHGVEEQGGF


Assays:
[1] = target: T1, G-CSF receptor; test: Luciferase assay on NFS60 cells in the presence of EDTA / metal chlorides; format: cell-based, murine; conditions: for effect of EDTA on agonist (luciferase) activity: EDTA 1.2 and 5 millimolar, media contained 1-5 uM zinc(II) (FIGS. 3, 4)
Experimental: FIG. 3 is an analysis of the effect of ethylenediaminetetraacetic acid (as used herein—EDTA) on the activity of Compound 1a (from Example 1) in NFS60 cells. Shown are luciferase response curves of Compound 1a at the indicated concentrations and in the presence of various concentrations of EDTA. […] The media in this assay contained a small amount (1-5 uM) of zinc(II).
FIG. 4 is an analysis of the effect of EDTA on the activity of recombinant G-CSF on NFS60 cells. Shown are luciferase response curves of recombinant G-CSF at the indicated concentrations and in the presents of various concentrations of EDTA. EDTA at both 1.2 and 5 millimolar has little effect on the activity of recombinant G-CSF in the assay.
FIGS. 5 and 6 depict an analysis of the activity of metal chlorides alone on the basal luciferase level of NFS60 cells. Shown are luciferase response curves of the indicated metal chlorides at various concentrations. None of the metals have a meaningful effect on the basal luciferase levels at concentrations equal or less than 10 micromolar.
FIGS. 7 and 8 show an analysis of the effect of metal chlorides on the EDTA depleted activity of Compound 1a on NFS60 cells. Shown are luciferase response curves as effected by the indicated metal chlorides. […] None of the other metals tested could overcome the inhibitory effect of EDTA.
In order to determine the requisiteness of metal chelation of small organic molecules to agonist activity at dimeric cell-surface receptors, the above luciferase assay was performed on the G-CSF receptor in the presence of EDTA. EDTA is a strong metal chelator and had as its only effect, the removal of zinc and other metals from the ligand-receptor interaction.

[2] = target: T1, G-CSF receptor; test: Luciferase reporter gene assay on G-CSF-responsive NFS60 cell line; format: cell-based, murine; conditions: NFS60 cells, absence of zinc (FIG. 1)
Experimental: Activity of compound 1a is below the threshold of 150% over background. The study was performed as a Luciferase assay configured on the G-CSF-responsive NFS60 cell line as described in Tian et al., Science 281, 257-259 (1998). The experiments shown in FIGS. 2-8 used the same NFS60 cell line.
Compounds of the present invention are tested for potency as agonist of a dimeric cell-surface receptor in a Luciferase reporter gene assay such as described in Tian et al., Science 281, 257-259 (1998). For example, for G-CSF NFS60 cells (Holmes, et al., Proc. Natl. Acad. Sci. USA 82: 6687-6691 (1985)) are selected because they express endogenous G-CSF receptors closely matching the pattern of STAT (signal transducers and activators of transcription) activation observed in primary murine and human bone marrow cells.

Molecule	effect of metal chlorides on the EDTA depleted luciferase activity of Compound 1a ([1]; 50 micromolar EDTA, metal 0.5-10 micromolar (FIGS. 7, 8))	luciferase activity over background [2]	effect of EDTA on agonist (luciferase) activity [1]
zinc (II) [reference compound]	can overcome the inhibition in luciferase activity		
c1ccc(C23NC(=Nc4nc5ccccc5[nH]4)NC2(c2ccccn2)NC(=Nc2nc4ccccc4[nH]2)N3)nc1 (stereo not shown) [Compound 1a, 2,5-Bis[2-benzimidazolylimino]-3a,6a-bis(2-pyridyl)-1,2,3,3a,4,5,6,6a-octahydroimidazo[4,5-d]imidazole]		< 150%	antagonized the activity; also recorded: abrogated
recombinant G-CSF: the natural ligand (i.e. G-CSF or recombinant G-CSF) of the G-CSF receptor (protein, UniProt P09919 31-207, looked up) Granulocyte …: TPLGPASSLPQSFLLKCLEQVRKIQGDGAALQEKLVSECATYKLCHPEELVLLGHSLGIPWAPLSSCPSQALQLAGCLSQLHSGLFLYQGLLQALEGISPELGPTLDTLQLDVADFATTIWQQMEELGMAPALQPTQGAMPAFASAFQRRAGGVLVASHLQSFLEVSYRVLRHLAQP			little effect; also recorded: not mediated by metal ions
